Legend:
[1] = target: T1, Biotinylated KRAS G12C protein (Homo sapiens, UniProt P01116, C118S/C51S/C80L/G12C); experiment: SOS-catalyzed nucleotide exchange assay; assay type: biochemical; conditions: apparent potency; preincubation time of 60 minutes prior to addition of SOS
T1 construct: 183 amino acids; biotin on K10

NCI-H358 cells = experiment: Cellular phospho-ERK assay; assay type: cell-based; conditions: Homo sapiens, NCI-H358, 2 h, NCI-H358 cells; 2 hour incubation; ratio of p-Erk vs total Erk; read-out: IC50
How it was run: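 15,000 cells/well seeded overnight, then dose-response compound treatment for 2 h at 37 °C in RPMI medium. Lysed and read by AlphaLISA SureFire Ultra multiplex; p-ERK/total ERK ratio as readout, IC50 from 4-parameter logistic fit.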

T1 sequence (P01116 with tags, fused parts or gaps isoform P01116-2 G12C/C51S/C80L/C118S): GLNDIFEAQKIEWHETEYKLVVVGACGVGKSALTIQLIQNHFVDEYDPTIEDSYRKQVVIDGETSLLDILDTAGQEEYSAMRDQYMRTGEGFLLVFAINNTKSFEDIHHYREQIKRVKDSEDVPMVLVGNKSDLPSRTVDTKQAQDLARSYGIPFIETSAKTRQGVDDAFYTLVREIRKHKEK

Row | SMILES | IC50 [1] [nM] | IC50 (NCI-H358 cells) [nM]
1 | C=CC(=O)N1CCN(c2cc(C(=O)NCCC3(N)CCCCC3)nc3c2CCN(c2cccc4cccc(C)c24)C3)C[C@@H]1CC#N [Compound 92, (S)-4-(4-acryloyl-3-(cyanomethyl)piperazin-1-yl)-N-(2-(1-aminocyclohexyl)ethyl)-7-(8-methylnaphthalen-1-yl)-5,6,7,8-tetrahydro-1,7-naphthyridine-2-carboxamide] | 20 | 7200
2 | C=C(F)C(=O)N1CCN(c2cc(C(=O)N[C@H](C)CN(C)C)nc3c2CCN(c2cccc4cccc(C)c24)C3)C[C@@H]1CC#N [Compound 78, 4-((S)-3-(cyanomethyl)-4-(2-fluoroacryloyl)piperazin-1-yl)-N-((R)-1-(dimethylamino)propan-2-yl)-7-(8-methylnaphthalen-1-yl)-5,6,7,8-tetrahydro-1,7-naphthyridine-2-carboxamide] | 8.3 | 1250
3 | C=CC(=O)N1CCN(c2cc(C(=O)N[C@H](C)CN)nc3c2CCN(c2cccc4ccccc24)C3)C[C@@H]1CC#N [Compound 61, 4-((S)-4-acryloyl-3-(cyanomethyl)piperazin-1-yl)-N—((R)-1-aminopropan-2-yl)-7-(naphthalen-1-yl)-5,6,7,8-tetrahydro-1,7-naphthyridine-2-carboxamide] | 13 | 1240
4 | C=CC(=O)N1CCN(c2cc(C(=O)N[C@H](C)CN(C)C)nc3c2CCN(c2c(Cl)c(C)cc4[nH]ncc24)C3)C[C@@H]1CC#N [Compound 84, 4-((S)-4-acryloyl-3-(cyanomethyl)piperazin-1-yl)-7-(5-chloro-6-methyl-1H-indazol-4-yl)-N—((R)-1-(dimethylamino)propan-2-yl)-5,6,7,8-tetrahydro-1,7-naphthyridine-2-carboxamide] | 0.9 | 96

Further lines, results first:

Row | IC50 [1] [nM] | IC50 (NCI-H358 cells) [nM] | SMILES
5 | 22 | 2000 | C=CC(=O)N1CCN(c2cc(C(=O)N[C@H](C)CN3CC(O)(C(F)(F)F)C3)nc3c2CCN(c2cccc4cccc(C)c24)C3)C[C@@H]1CC#N [Compound 69, 4-((S)-4-acryloyl-3-(cyanomethyl)piperazin-1-yl)-N-((R)-1-(3-hydroxy-3-(trifluoromethyl)azetidin-1-yl)propan-2-yl)-7-(8-methylnaphthalen-1-yl)-5,6,7,8-tetrahydro-1,7-naphthyridine-2-carboxamide]
6 | 5.9 | 433 | C=CC(=O)N1CCN(c2cc(C(=O)N[C@H](C)CN)nc3c2CCN(c2cccc4cccc(C)c24)C3)C[C@@H]1CC#N [Compound 67, 4-((S)-4-acryloyl-3-(cyanomethyl)piperazin-1-yl)-N—((R)-1-aminopropan-2-yl)-7-(8-methylnaphthalen-1-yl)-5,6,7,8-tetrahydro-1,7-naphthyridine-2-carboxamide]

Source: patent US20220402916A1, “SMALL MOLECULE INHIBITORS OF KRAS G12C MUTANT” (Merck Sharp & Dohme Corp., priority 2019, published 2022)
